From ChEMBL document CHEMBL1152085, “Novel 3-deoxy-3-descladinosyl-6-O-methyl erythromycin a analogues. Synthesis and in vitro activity” (1997)
In brackets after ≈: the same amount, converted by molar mass.

Assays:
Format in all cases: functional
[1] = tested on: Staphylococcus aureus; test: Tested in vitro for minimum inhibitory concentration to produce antibacterial activity against Staphylococcus aureus ATCC 6538P in presence of erythromycin A
[2] = tested on: Staphylococcus aureus; test: Tested in vitro for minimum inhibitory concentration to produce antibacterial activity against Staphylococcus aureus NCTC-10649M
[3] = tested on: Staphylococcus epidermidis; test: Tested in vitro for minimum inhibitory concentration to produce antibacterial activity against Staphylococcus epidermidis 3519 in presence of erythromycin A
[4] = tested on: Staphylococcus epidermidis; test: Tested in vitro for minimum inhibitory concentration to produce antibacterial activity against Staphylococcus epidermidis 3519
[5] = tested on: Streptococcus pyogenes; test: Tested in vitro for minimum inhibitory concentration to produce antibacterial activity against Streptococcus pyogenes EES61 in presence of erythromycin A
[6] = tested on: Streptococcus pyogenes; test: Tested in vitro for minimum inhibitory concentration to produce antibacterial activity against Streptococcus pyogenes EES61
[7] = tested on: Enterococcus faecium; test: Tested in vitro for minimum inhibitory concentration to produce antibacterial activity against Enterococcus faecium ATCC 8043 in presence of erythromycin A
[8] = tested on: Streptococcus agalactiae; test: Tested in vitro for minimum inhibitory concentration to produce antibacterial activity against Streptococcus agalactiae CMX 508
[9] = tested on: Staphylococcus aureus; test: Tested in vitro for minimum inhibitory concentration to produce antibacterial activity against Staphylococcus aureus A5177
[10] = tested on: Streptococcus equinus; test: Tested in vitro for minimum inhibitory concentration to produce antibacterial activity against Streptococcus bovis A-5169 in presence of erythromycin A
[11] = tested on: Staphylococcus aureus; test: Tested in vitro for minimum inhibitory concentration to produce antibacterial activity against Staphylococcus aureus 1775
[12] = tested on: Staphylococcus aureus; test: Tested in vitro for minimum inhibitory concentration to produce antibacterial activity against Staphylococcus aureus CMX 642A
[13] = tested on: Staphylococcus aureus; test: Tested in vitro for minimum inhibitory concentration to produce antibacterial activity against Staphylococcus aureus CMX 553
[14] = tested on: Staphylococcus aureus; test: Tested in vitro for minimum inhibitory concentration to produce antibacterial activity against Staphylococcus aureus A-5278
[15] = tested on: Streptococcus pyogenes; test: Tested in vitro for minimum inhibitory concentration to produce antibacterial activity against Streptococcus pyogenes 930 in presence of erythromycin A
[16] = tested on: Staphylococcus aureus; test: Tested in vitro for minimum inhibitory concentration to produce antibacterial activity against Staphylococcus aureus A5177 in presence of erythromycin A
[17] = tested on: Staphylococcus aureus; test: Tested in vitro for minimum inhibitory concentration to produce antibacterial activity against Staphylococcus aureus 1775 in presence of erythromycin A
[18] = tested on: Staphylococcus aureus; test: Tested in vitro for minimum inhibitory concentration to produce antibacterial activity against Staphylococcus aureus NCTC-10649M in presence of erythromycin A
[19] = tested on: Streptococcus agalactiae; test: Tested in vitro for minimum inhibitory concentration to produce antibacterial activity against Streptococcus agalactiae CMX 508 in presence of erythromycin A
[20] = tested on: Streptococcus equinus; test: Tested in vitro for minimum inhibitory concentration to produce antibacterial activity against Streptococcus bovis A-5169
[21] = tested on: Staphylococcus aureus; test: Tested in vitro for minimum inhibitory concentration to produce antibacterial activity against Staphylococcus aureus CMX 553 in presence of erythromycin A
[22] = tested on: Staphylococcus aureus; test: Tested in vitro for minimum inhibitory concentration to produce antibacterial activity against Staphylococcus aureus A-5278 in presence of erythromycin A
[23] = tested on: Staphylococcus aureus; test: Tested in vitro for minimum inhibitory concentration to produce antibacterial activity against Staphylococcus aureus CMX 642A in presence of erythromycin A
[24] = tested on: Streptococcus pyogenes; test: Tested in vitro for minimum inhibitory concentration to produce antibacterial activity against Streptococcus pyogenes 930
[25] = tested on: Streptococcus pyogenes; test: Tested in vitro for minimum inhibitory concentration to produce antibacterial activity against Streptococcus pyogenes PIU 2548 in presence of erythromycin A
[26] = tested on: Enterococcus faecium; test: Tested in vitro for minimum inhibitory concentration to produce antibacterial activity against Enterococcus faecium ATCC 8043
[27] = tested on: Streptococcus pyogenes; test: Tested in vitro for minimum inhibitory concentration to produce antibacterial activity against Streptococcus pyogenes PIU 2548
[28] = tested on: Staphylococcus aureus; test: Tested in vitro for minimum inhibitory concentration to produce antibacterial activity against Staphylococcus aureus ATCC 6538P
[29] = tested on: Escherichia coli; test: Tested in vitro for minimum inhibitory concentration to produce antibacterial activity against Escherichia coli JUHL in presence of erythromycin A
[30] = tested on: Escherichia coli; test: Tested in vitro for minimum inhibitory concentration to produce antibacterial activity against Escherichia coli SS
[31] = tested on: Escherichia coli; test: Tested in vitro for minimum inhibitory concentration to produce antibacterial activity against Escherichia coli JUHL
[32] = tested on: Escherichia coli; test: Tested in vitro for minimum inhibitory concentration to produce antibacterial activity against Escherichia coli SS in presence of erythromycin A

`CC[C@H]1OC(=O)[C@H](C)C[C@H](C)[C@@H](O[C@@H]2O[C@H](C)C[C@H](N(C)C)[C@H]2O)[C@](C)(OC)C[C@@H](C)C2=NCCN3C(=O)O[C@@]1(C)[C@H]3[C@H]2C` showed an MIC [1] of 0.39 µg/mL, an MIC [2] of 6.2 µg/mL (≈ 9.94 µM) and an MIC [3] of 0.39 µg/mL. The MIC [4] was 12.5 µg/mL (≈ 20 µM), the MIC [5] was 0.02 µg/mL and the MIC [6] was 0.39 µg/mL (≈ 0.625 µM). It also gave an MIC [7] of 0.05 µg/mL, an MIC [8] of 0.39 µg/mL (≈ 0.625 µM) and an MIC [9] of 6.2 µg/mL (≈ 9.94 µM). For the same compound, the MIC [10] was 0.05 µg/mL, the MIC [11] was over 100 µg/mL and the MIC [12] was 6.2 µg/mL (≈ 9.94 µM). For the same compound, the MIC [13] was 6.2 µg/mL (≈ 9.94 µM), the MIC [14] was over 100 µg/mL and the MIC [15] was over 100 µg/mL. It also gave an MIC [16] of 12.5 µg/mL, an MIC [17] of over 100 µg/mL and an MIC [18] of 0.39 µg/mL. It also gave an MIC [19] of 0.05 µg/mL, an MIC [20] of 0.39 µg/mL (≈ 0.625 µM) and an MIC [21] of 0.39 µg/mL. For the same compound, the MIC [22] was over 100 µg/mL, the MIC [23] was 0.39 µg/mL and the MIC [24] was over 100 µg/mL. The MIC [25] was 6.2 µg/mL, the MIC [26] was 0.78 µg/mL (≈ 1.25 µM) and the MIC [27] was 0.78 µg/mL (≈ 1.25 µM). It also gave an MIC [28] of 6.2 µg/mL (≈ 9.94 µM).

`CC[C@H]1OC(=O)[C@H](C)C[C@H](C)[C@@H](O[C@@H]2O[C@H](C)C[C@H](N(C)C)[C@H]2O)[C@](C)(OC)C[C@@H](C)/C(=N\O)[C@H](C)[C@@H](O)[C@]1(C)O` showed an MIC [1] of 0.2 µg/mL, an MIC [2] of 12.5 µg/mL (≈ 21.2 µM) and an MIC [3] of 0.2 µg/mL. It also gave an MIC [4] of 12.5 µg/mL (≈ 21.2 µM), an MIC [5] of 0.01 µg/mL and an MIC [29] of 50 µg/mL. The MIC [6] was 0.78 µg/mL (≈ 1.32 µM), the MIC [7] was 0.05 µg/mL and the MIC [8] was 0.78 µg/mL (≈ 1.32 µM). The MIC [9] was 25 µg/mL (≈ 42.5 µM), the MIC [10] was 0.05 µg/mL and the MIC [11] was over 100 µg/mL. The MIC [30] was 0.78 µg/mL (≈ 1.32 µM), the MIC [12] was 12.5 µg/mL (≈ 21.2 µM) and the MIC [13] was 12.5 µg/mL (≈ 21.2 µM). It also gave an MIC [14] of over 100 µg/mL, an MIC [31] of over 100 µg/mL and an MIC [15] of over 100 µg/mL. For the same compound, the MIC [16] was 3.1 µg/mL, the MIC [17] was over 100 µg/mL and the MIC [18] was 0.2 µg/mL. For the same compound, the MIC [19] was 0.01 µg/mL, the MIC [20] was 0.78 µg/mL (≈ 1.32 µM) and the MIC [21] was 0.2 µg/mL. The MIC [22] was over 100 µg/mL, the MIC [23] was 0.2 µg/mL and the MIC [24] was over 100 µg/mL. For the same compound, the MIC [25] was 6.2 µg/mL, the MIC [32] was 0.2 µg/mL and the MIC [26] was 3.1 µg/mL (≈ 5.27 µM). For the same compound, the MIC [27] was 1.56 µg/mL (≈ 2.65 µM) and the MIC [28] was 12.5 µg/mL (≈ 21.2 µM).

Compound `CC[C@H]1OC(=O)[C@H](C)C[C@H](C)[C@@H](O[C@@H]2O[C@H](C)C[C@H](N(C)C)[C@H]2O)[C@](C)(OC)C[C@@H](C)C(=O)[C@H](C)[C@H]2OC(=O)O[C@@]21C` has an MIC [1] of 0.2 µg/mL, an MIC [2] of 6.2 µg/mL (≈ 10.3 µM) and an MIC [3] of 0.2 µg/mL. For the same compound, the MIC [4] was 6.2 µg/mL (≈ 10.3 µM), the MIC [5] was 0.01 µg/mL and the MIC [29] was 50 µg/mL. For the same compound, the MIC [6] was 0.2 µg/mL (≈ 0.333 µM), the MIC [7] was 0.05 µg/mL and the MIC [8] was 0.2 µg/mL (≈ 0.333 µM). It also gave an MIC [9] of 3.1 µg/mL (≈ 5.17 µM), an MIC [10] of 0.05 µg/mL and an MIC [11] of over 100 µg/mL. It also gave an MIC [30] of 0.78 µg/mL (≈ 1.3 µM), an MIC [12] of 3.1 µg/mL (≈ 5.17 µM) and an MIC [13] of 3.1 µg/mL (≈ 5.17 µM). For the same compound, the MIC [14] was over 100 µg/mL, the MIC [31] was over 100 µg/mL and the MIC [15] was over 100 µg/mL. The MIC [16] was 3.1 µg/mL, the MIC [17] was over 100 µg/mL and the MIC [18] was 0.2 µg/mL. It also gave an MIC [19] of 0.01 µg/mL, an MIC [20] of 0.2 µg/mL (≈ 0.333 µM) and an MIC [21] of 0.2 µg/mL. It also gave an MIC [22] of over 100 µg/mL, an MIC [23] of 0.2 µg/mL and an MIC [24] of over 100 µg/mL. For the same compound, the MIC [25] was 6.2 µg/mL, the MIC [32] was 0.2 µg/mL and the MIC [26] was 0.78 µg/mL (≈ 1.3 µM). It also gave an MIC [27] of 0.78 µg/mL (≈ 1.3 µM) and an MIC [28] of 6.2 µg/mL (≈ 10.3 µM).

Compound `CC[C@H]1OC(=O)[C@H](C)C[C@H](C)[C@@H](O[C@@H]2O[C@H](C)C[C@H](N(C)C)[C@H]2O)[C@](C)(OC)C[C@@H](C)/C(=N\OC)[C@H](C)[C@@H](O)[C@]1(C)O` has an MIC [1] of 0.2 µg/mL, an MIC [2] of 100 µg/mL (≈ 166 µM) and an MIC [3] of 0.2 µg/mL. It also gave an MIC [4] of 100 µg/mL (≈ 166 µM), an MIC [5] of 0.01 µg/mL and an MIC [29] of 50 µg/mL. The MIC [6] was 6.2 µg/mL (≈ 10.3 µM), the MIC [7] was 0.1 µg/mL and the MIC [8] was 25 µg/mL (≈ 41.5 µM). For the same compound, the MIC [9] was 100 µg/mL (≈ 166 µM), the MIC [10] was 0.01 µg/mL and the MIC [11] was over 100 µg/mL. It also gave an MIC [30] of 6.2 µg/mL (≈ 10.3 µM), an MIC [12] of 100 µg/mL (≈ 166 µM) and an MIC [13] of 100 µg/mL (≈ 166 µM). For the same compound, the MIC [14] was over 100 µg/mL, the MIC [31] was over 100 µg/mL and the MIC [15] was over 100 µg/mL. The MIC [16] was 6.2 µg/mL, the MIC [17] was over 100 µg/mL and the MIC [18] was 0.39 µg/mL. It also gave an MIC [19] of 0.02 µg/mL, an MIC [20] of 3.1 µg/mL (≈ 5.14 µM) and an MIC [21] of 0.39 µg/mL. The MIC [22] was over 100 µg/mL, the MIC [23] was 0.39 µg/mL and the MIC [24] was 100 µg/mL (≈ 166 µM). The MIC [32] was 0.39 µg/mL, the MIC [26] was 100 µg/mL (≈ 166 µM) and the MIC [28] was 100 µg/mL (≈ 166 µM).
